Assay results published in patent US12233073B2, “Skin care formulations and skin cancer treatment” (Regents of the University of Minnesota, priority 2017, dated 2025).
“And” between values parts separate entries of the source, which are not always exact repeats. Identical values can stand only once. Like-named read-outs stand apart in the source and are kept apart here.

How the values were obtained:
[1] = tested on: IFN-γ, IL-12 and PGE2; test: Immune system markers (IFN-γ, IL-12, PGE2, T-cell markers) in the SSL-induced prevention models; assay type: in vivo, mouse; conditions: for T cell infiltrates in mouse skin: CD3, CD4 markers; for production of IFN-γ in mouse serum: ELISA; for production of IFN-γ in mouse serum / production of IL-12 in mouse serum / production of IL-12 in mouse skin: SSL-induced prevention models; for PGE2 levels in the skin: SSL-exposed skin
Text: Exposure to UV radiation suppresses the immune response and UV-induced immune suppression is a major risk factor for skin cancer. In particular, UV exposure induces the production of Th2-associated cytokines and interferes with antigen presentation to Th1 cells producing IFN-γ. To determine whether rocuronium bromide or betamethasone 17-valerate affects the immune system response, the level of immune system markers, including interferon-γ (IFN-γ), interleukin-12 (IL-12) and prostaglandin E2 (PGE2), in mouse serum and the T-cell markers, CD3 and CD4, were examined. CD3 is associated with the T-cell receptor (TCR) and is essential in signal transduction in T cells following TCR activation. Tumor microenvironment-mediated down-regulation of TCR-associated signaling leads to the inhibition of T cell function and antitumor immunity in the tumor-bearing host. Very few T cells are observed in the epidermis and dermis of solar UV-induced SCCs.
SSL-induced immunosuppressive responses are associated with production of Th2-related cytokines (IL-10) and disturbance of antigen presentation to Th1 cells producing IFN-γ. Therefore, SSL-induced immunosuppression could be prevented by the Th1 cytokine, IFN-γ. An enzyme-linked immunosorbent assay (ELISA) was performed to examine IFN-γ levels in mouse serum. FIG. 25A is a chart comparing the effect of rocuronium bromide treatment on enhancement of IFN-γ production by immune cells in an early-stage SSL-induced prevention model. IL-12 is an immunoregulatory cytokine to reverse UV-induced DNA damage and immunosuppression, and also regulates the function and development of Th1 type cells by stimulating IFN-γ production. Furthermore, treatment with recombinant IL-12 reversed the UV-induced immunosuppression. Additionally, PGE2 plays a key role as an activator of UV-induced immunosuppression through its down-regulation of the levels of IL-12. Thus, the effects of PRPK inhibitors on SSL-induced changes on the immunoregulatory cytokines, IL-12 and PGE2, were investigated.

[2] = tested on: SSL-exposed skin of SKH-1 hairless mouse; test: Acute SSL-induced skin inflammation in SKH-1 hairless mouse skin (H&E, p-PRPK staining and blot); assay type: in vivo; conditions: for sUV-induced increase in PRPK expression / sUV-induced increase in epidermal thickness: topical in cream carrier, 24 h after SSL irradiation, vs untreated sUV-exposed group; for phosphorylation of PRPK in sUV-treated mouse skin / sUV-induced phosphorylation on increasing the concentration: topical treatment; for sUV-induced phosphorylation on increasing the concentration: higher concentration
Description: PRPK phosphorylation induced by sUV is a potent stimulator of skin inflammation. Inflammation contributes to tumor development and progression and metastasis often arises in acute and chronic inflammatory skin conditions and increased epidermal thickness is a sign of sUV-induced inflammatory responses. To examine the effect of rocuronium bromide on SSL-induced acute skin inflammation, H&E (haemotoxylin and eosin) staining on SSL-exposed skin tissues of SKH-1 hairless mouse skin was performed. FIG. 15 is a photographic array comparing epidermal thickness in mouse skin samples exposed to one or more of SSL, rocuronium bromide, and betamethasone 17-valerate. FIG. 16 is a photographic array comparing expression of phosphorylated PRPK in immunologically stained mouse skin samples exposed to one or more of SSL, rocuronium bromide, and […]. A cream carrier was used to apply the rocuronium bromide or betamethasone 17-valerate. […] In contrast, application of rocuronium bromide or betamethasone-17-valerate attenuated sUV-induced increases in epidermal thickness and PRPK expression compared to the untreated sUV-exposed group (FIGS. 15 and 16).
FIG. 17 is a photograph illustrating a chromatographic plate comparing the phosphorylation of PRPK in mouse skin tissue samples treated or not treated with rocuronium bromide and exposed or not exposed to SSL. FIG. 18 is a photograph illustrating a chromatographic plate comparing the phosphorylation of PRPK in mouse skin tissue samples treated or not treated with betamethasone 17-valerate and exposed or not exposed to SSL. Topical treatment with rocuronium bromide (FIG. 17) or betamethasone-17-valerate (FIG. 18) decreased phosphorylation of PRPK in sUV-treated mouse skin.

[3] = tested on: cyclobutane pyrimidine dimers (CPD); test: Cyclobutane pyrimidine dimer (CPD) formation in skin of SKH1 hairless mice exposed to acute SSL; assay type: in vivo, mouse; conditions: topical 0.1% or 1%
Description: The effect of rocuronium bromide treatment and betamethasone 17-valerate treatment on the formation of cyclobutene pyrimidine dimers was evaluated. sUV-induced DNA damage, predominantly observed as the formation of cyclobutane pyrimidine dimers (CPD), is recognized as an important molecular trigger for the initiation of sUV-induced immunosuppression and carcinogenesis in the skin. FIG. 19A is a chart comparing effect of rocuronium bromide treatment and betamethasone 17-valerate treatment on the formation of cyclobutene pyrimidine dimers in skin tissues from SKH1 hairless mice exposed to acute SSL. FIG. 19C is a photographic array comparing amount of CPD in immunologically stained control mouse skin samples. FIG. 19D is a photographic array comparing amount of CPD in immunologically stained mouse skin samples exposed only to a vehicle. FIG. 19E is a photographic array comparing amount of CPD in immunologically stained mouse skin samples exposed to rocuronium bromide alone. FIG. 19F is a photographic array comparing amount of CPD in immunologically stained mouse skin samples exposed to betamethasone 17-valerate alone. FIG. 19G is a photographic array comparing amount of CPD in immunologically stained mouse skin samples exposed to SSL alone. FIG. 19H is a photographic array comparing amount of CPD in immunologically stained mouse skin samples exposed to SSL with the vehicle. […]

[4] = Pharmacokinetics: plasma levels after topical RB cream; assay type: in vivo, SKH1-Hrhr hairless mice; conditions: for ng/ml RB (plasma, single mouse): listed as RB; for concentration at 24 h: 24 h post-dose
Description: To assess pharmacokinetics, RB cream (1.0 mg RB in 100 μl cream) was topically applied to the dorsum of SKH1-Hrhr hairless mice (Charles River), and plasma sample were taken at 0, 0.25, 0.5, 1, 2, 6, 24 and 48 hours post-dose (3 mice/time point).

Question: What does the source list for `C=CC[N+]1([C@H]2C[C@H]3[C@@H]4CC[C@H]5C[C@H](O)[C@@H](N6CCOCC6)C[C@]5(C)[C@H]4CC[C@]3(C)[C@H]2OC(C)=O)CCCC1` [rocuronium bromide]?
Answer: T cell infiltrates in mouse skin [1]: dense T cell infiltrates; production of IFN-γ in mouse serum [1]: increased; PGE2 levels in the skin [1]: decreased; production of IL-12 in mouse serum [1]: increased; production of IL-12 in mouse skin [1]: increased; sUV-induced increase in PRPK expression [2]: attenuated; sUV-induced increase in epidermal thickness [2]: attenuated; phosphorylation of PRPK in sUV-treated mouse skin [2]: decreased; sUV-induced phosphorylation on increasing the concentration [2]: further reduced; sUV-induced CPD production [3]: reduced; time of peak plasma levels post application ([4]; 1.0 mg RB in 100 μl cream topically): ≤ 15 min; ng/ml RB (plasma, single mouse) ([4]; 0.25 h post-dose, 1.0 mg RB in 100 μl cream topically): 3058 ng/mL and 18 ng/mL and 210 ng/mL; ng/ml RB (plasma, single mouse) ([4]; 0.5 h post-dose, 1.0 mg RB in 100 μl cream topically): 123 ng/mL and 36 ng/mL and 73 ng/mL; ng/ml RB (plasma, single mouse) ([4]; 1 h post-dose, 1.0 mg RB in 100 μl cream topically): 7 ng/mL and 25 ng/mL and 48 ng/mL; ng/ml RB (plasma, single mouse) ([4]; 2 h post-dose, 1.0 mg RB in 100 μl cream topically, BDL = below detection limit (~2 ng/ml)): 15 ng/mL; ng/ml RB (plasma, single mouse) ([4]; 6 h post-dose, 1.0 mg RB in 100 μl cream topically, BDL = below detection limit (~2 ng/ml)): 8 ng/mL; concentration at 0.25 h ([4]; SKH1-Hrhr hairless, mouse, plasma, topical, 1 mg, 0.25 h post-dose, 3 mice): 1100 ng/mL; concentration at 0.5 h ([4]; SKH1-Hrhr hairless, mouse, plasma, topical, 1 mg, 0.5 h post-dose, 3 mice): 77.3 ng/mL; concentration at 1 h ([4]; SKH1-Hrhr hairless, mouse, plasma, topical, 1 mg, 1 h post-dose, 3 mice): 26.7 ng/mL; concentration at 2 h ([4]; SKH1-Hrhr hairless, mouse, plasma, topical, 1 mg, 2 h post-dose, 1.0 mg RB in 100 μl cream topically, BDL = below detection limit (~2 ng/ml), read-out: ng/ml RB (plasma, single mouse)): 11 ng/mL; concentration at 2 h ([4]; SKH1-Hrhr hairless, mouse, plasma, topical, 1 mg, 2 h post-dose, 3 mice, read-out: MEAN ng/ml RB (plasma)): 8.7 ng/mL; concentration at 6 h ([4]; SKH1-Hrhr hairless, mouse, plasma, topical, 1 mg, 6 h post-dose, 1.0 mg RB in 100 μl cream topically, BDL = below detection limit (~2 ng/ml), read-out: ng/ml RB (plasma, single mouse)): 7 ng/mL; concentration at 6 h ([4]; SKH1-Hrhr hairless, mouse, plasma, topical, 1 mg, 6 h post-dose, 3 mice, read-out: MEAN ng/ml RB (plasma)): 5 ng/mL; concentration at 24 h ([4]; SKH1-Hrhr hairless, mouse, plasma, topical, 1 mg, 1.0 mg RB in 100 μl cream topically, BDL = below detection limit (~2 ng/ml), read-out: ng/ml RB (plasma, single mouse)): 14 ng/mL; concentration at 24 h ([4]; SKH1-Hrhr hairless, mouse, plasma, topical, 1 mg, 3 mice, read-out: MEAN ng/ml RB (plasma)): 4.7 ng/mL; time at which RB in plasma approaches baseline levels for the assay ([4]; post-dose, 1.0 mg RB in 100 μl cream topically): approximately 6 hours

Question: For `CCCCC(=O)O[C@]1(C(=O)CO)[C@@H](C)C[C@H]2[C@@H]3CCC4=CC(=O)C=C[C@]4(C)[C@@]3(F)[C@@H](O)C[C@@]21C` [betamethasone 17-valerate], which “T cell infiltrates in mouse skin” value [1] is on record?
Answer: dense T cell infiltrates

Question: And the “production of IFN-γ in mouse serum” value [1]?
Answer: increased

Question: What about the “PGE2 levels in the skin” value [1] of the same compound?
Answer: decreased

Question: What about the “production of IL-12 in mouse serum” value [1] of the same compound?
Answer: increased

Question: What about the “production of IL-12 in mouse skin” value [1] of the same compound?
Answer: increased

Question: What about the “sUV-induced increase in PRPK expression” value [2] of the same compound?
Answer: attenuated

Question: What about the “sUV-induced increase in epidermal thickness” value [2] of the same compound?
Answer: attenuated

Question: What about the “phosphorylation of PRPK in sUV-treated mouse skin” value [2] of the same compound?
Answer: decreased

Question: And the “sUV-induced phosphorylation on increasing the concentration” value [2]?
Answer: further reduced

Question: What about the “sUV-induced CPD production” value [3] of the same compound?
Answer: reduced
